{"source": "ChEMBL document CHEMBL5465560", "about": "“Selectivity Literature for EUbOPEN Chemogenomic Library” (2024)", "key": {"[1]": {"molecular_target": "T1, Homeodomain-interacting protein kinase 4 (Homo sapiens) (UniProt Q8NE63)", "T1 sequence (whole entry)": "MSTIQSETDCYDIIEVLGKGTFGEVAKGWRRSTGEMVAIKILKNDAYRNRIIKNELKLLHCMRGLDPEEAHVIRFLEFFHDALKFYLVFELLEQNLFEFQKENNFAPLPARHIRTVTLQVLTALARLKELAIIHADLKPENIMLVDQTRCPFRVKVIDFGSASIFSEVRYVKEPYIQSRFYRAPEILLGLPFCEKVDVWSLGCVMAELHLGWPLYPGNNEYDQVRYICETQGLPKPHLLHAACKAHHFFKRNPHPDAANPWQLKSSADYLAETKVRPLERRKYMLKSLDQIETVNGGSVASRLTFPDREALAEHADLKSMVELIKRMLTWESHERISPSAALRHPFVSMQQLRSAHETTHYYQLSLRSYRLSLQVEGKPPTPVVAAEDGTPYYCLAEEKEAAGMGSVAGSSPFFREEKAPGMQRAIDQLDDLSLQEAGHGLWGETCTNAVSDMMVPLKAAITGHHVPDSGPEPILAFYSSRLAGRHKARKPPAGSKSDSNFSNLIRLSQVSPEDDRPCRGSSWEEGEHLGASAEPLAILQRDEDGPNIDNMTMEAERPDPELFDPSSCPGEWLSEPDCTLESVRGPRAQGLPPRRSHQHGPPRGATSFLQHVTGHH", "test": "Selectivity interaction (KinomeScan (DiscoverX)) EUB0000655a HIPK4", "details": "at 10 µM"}, "[2]": {"molecular_target": "Muscarinic acetylcholine receptor M4 (Homo sapiens) (UniProt P08173)", "sequence (P08173 whole entry)": "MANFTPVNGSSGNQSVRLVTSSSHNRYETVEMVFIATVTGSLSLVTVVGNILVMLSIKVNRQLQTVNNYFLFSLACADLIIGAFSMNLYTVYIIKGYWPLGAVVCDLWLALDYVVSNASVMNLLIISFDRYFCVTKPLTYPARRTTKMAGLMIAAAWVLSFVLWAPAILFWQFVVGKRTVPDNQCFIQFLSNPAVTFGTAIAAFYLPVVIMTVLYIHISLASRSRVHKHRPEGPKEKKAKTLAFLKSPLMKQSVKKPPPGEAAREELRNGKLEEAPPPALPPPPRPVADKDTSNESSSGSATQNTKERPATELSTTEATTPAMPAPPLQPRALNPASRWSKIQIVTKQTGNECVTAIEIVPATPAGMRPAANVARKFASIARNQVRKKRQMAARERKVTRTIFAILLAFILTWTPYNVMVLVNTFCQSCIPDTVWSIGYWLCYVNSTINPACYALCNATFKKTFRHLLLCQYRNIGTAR", "test": "Selectivity interaction (GPCR panel (PDSP screen)) EUB0001079a CHRM4", "details": "at 10 µM"}, "[3]": {"molecular_target": "T2, Bone morphogenetic protein receptor type-2 (Homo sapiens) (UniProt Q13873)", "T2 sequence (whole entry)": "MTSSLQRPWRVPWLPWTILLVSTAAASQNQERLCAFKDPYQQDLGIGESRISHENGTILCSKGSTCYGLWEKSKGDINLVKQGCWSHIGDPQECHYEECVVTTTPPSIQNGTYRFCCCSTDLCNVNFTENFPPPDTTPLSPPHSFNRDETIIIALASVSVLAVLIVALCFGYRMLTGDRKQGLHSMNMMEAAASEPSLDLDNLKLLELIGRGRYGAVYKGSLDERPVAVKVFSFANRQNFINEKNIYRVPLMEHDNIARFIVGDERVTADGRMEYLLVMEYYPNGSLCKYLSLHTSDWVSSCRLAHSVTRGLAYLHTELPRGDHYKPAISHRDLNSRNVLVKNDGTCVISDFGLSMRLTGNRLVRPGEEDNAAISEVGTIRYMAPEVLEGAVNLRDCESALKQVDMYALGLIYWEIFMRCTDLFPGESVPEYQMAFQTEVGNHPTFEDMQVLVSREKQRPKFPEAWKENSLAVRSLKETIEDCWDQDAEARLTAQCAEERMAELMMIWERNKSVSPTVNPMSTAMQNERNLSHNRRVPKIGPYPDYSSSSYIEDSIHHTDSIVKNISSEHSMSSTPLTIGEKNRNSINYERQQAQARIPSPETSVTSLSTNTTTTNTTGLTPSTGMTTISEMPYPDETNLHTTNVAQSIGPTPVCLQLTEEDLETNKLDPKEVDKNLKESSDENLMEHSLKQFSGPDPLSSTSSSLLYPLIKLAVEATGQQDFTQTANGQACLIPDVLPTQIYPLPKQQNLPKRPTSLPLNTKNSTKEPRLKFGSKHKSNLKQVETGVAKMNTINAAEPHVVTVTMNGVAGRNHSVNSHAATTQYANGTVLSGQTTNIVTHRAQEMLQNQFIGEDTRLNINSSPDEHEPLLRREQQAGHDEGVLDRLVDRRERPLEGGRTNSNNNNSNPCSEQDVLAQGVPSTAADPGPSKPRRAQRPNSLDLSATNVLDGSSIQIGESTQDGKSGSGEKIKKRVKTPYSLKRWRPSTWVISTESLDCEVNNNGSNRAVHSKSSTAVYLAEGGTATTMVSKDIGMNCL", "test": "Selectivity interaction (KinomeScan (DiscoverX)) EUB0000045b BMPR2"}, "[4]": {"molecular_target": "DNA (cytosine-5)-methyltransferase 1 (Homo sapiens) (UniProt P26358)", "details": "at 10 µM"}, "[5]": {"molecular_target": "Tyrosine-protein kinase JAK1 (Homo sapiens, UniProt P23458)", "sequence (P23458 whole entry)": "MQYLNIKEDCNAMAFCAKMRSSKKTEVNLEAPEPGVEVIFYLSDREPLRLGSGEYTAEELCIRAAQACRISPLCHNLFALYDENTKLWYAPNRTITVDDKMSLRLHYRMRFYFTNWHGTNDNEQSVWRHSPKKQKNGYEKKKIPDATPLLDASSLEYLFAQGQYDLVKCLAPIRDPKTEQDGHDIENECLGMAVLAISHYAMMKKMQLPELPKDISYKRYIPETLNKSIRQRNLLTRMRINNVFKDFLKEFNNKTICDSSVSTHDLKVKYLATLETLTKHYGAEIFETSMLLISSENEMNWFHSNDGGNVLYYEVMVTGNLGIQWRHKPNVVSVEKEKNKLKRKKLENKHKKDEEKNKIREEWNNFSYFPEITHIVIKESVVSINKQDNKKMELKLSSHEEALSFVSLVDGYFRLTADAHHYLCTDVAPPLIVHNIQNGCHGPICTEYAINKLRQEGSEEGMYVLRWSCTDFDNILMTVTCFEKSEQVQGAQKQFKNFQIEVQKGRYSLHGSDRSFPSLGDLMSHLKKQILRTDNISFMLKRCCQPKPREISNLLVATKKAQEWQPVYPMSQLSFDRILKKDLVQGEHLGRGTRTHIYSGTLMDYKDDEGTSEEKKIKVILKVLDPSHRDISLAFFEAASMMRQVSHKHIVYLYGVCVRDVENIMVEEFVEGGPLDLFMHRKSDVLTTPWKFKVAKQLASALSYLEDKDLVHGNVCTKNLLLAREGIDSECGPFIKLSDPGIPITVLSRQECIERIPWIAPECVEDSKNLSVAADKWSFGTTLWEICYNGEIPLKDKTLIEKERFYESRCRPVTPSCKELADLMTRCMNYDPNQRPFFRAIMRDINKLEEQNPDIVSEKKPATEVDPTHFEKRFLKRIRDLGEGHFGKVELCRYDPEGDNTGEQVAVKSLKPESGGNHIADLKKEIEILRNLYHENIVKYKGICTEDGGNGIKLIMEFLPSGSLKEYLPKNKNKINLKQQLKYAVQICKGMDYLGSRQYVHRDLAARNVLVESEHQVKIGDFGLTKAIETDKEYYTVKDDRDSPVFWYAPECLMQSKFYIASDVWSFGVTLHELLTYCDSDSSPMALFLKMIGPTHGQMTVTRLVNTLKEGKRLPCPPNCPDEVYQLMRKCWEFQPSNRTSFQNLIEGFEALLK", "test": "Selectivity interaction (Kinase panel (KiNativ target engagement assay in Jurkat cells)) EUB0001635a JAK1", "type": "cell-based", "details": "Selectivity number of off-targets 0.0, Selectivity number of targets 233.0, Source Knowledge https://www.sciencedirect.com/science/article/pii/S2451945619300674?via%3Dihub, at 1 µM"}, "[6]": {"molecular_target": "Non-receptor tyrosine-protein kinase TYK2 (Homo sapiens, UniProt P29597)", "sequence (P29597 whole entry)": "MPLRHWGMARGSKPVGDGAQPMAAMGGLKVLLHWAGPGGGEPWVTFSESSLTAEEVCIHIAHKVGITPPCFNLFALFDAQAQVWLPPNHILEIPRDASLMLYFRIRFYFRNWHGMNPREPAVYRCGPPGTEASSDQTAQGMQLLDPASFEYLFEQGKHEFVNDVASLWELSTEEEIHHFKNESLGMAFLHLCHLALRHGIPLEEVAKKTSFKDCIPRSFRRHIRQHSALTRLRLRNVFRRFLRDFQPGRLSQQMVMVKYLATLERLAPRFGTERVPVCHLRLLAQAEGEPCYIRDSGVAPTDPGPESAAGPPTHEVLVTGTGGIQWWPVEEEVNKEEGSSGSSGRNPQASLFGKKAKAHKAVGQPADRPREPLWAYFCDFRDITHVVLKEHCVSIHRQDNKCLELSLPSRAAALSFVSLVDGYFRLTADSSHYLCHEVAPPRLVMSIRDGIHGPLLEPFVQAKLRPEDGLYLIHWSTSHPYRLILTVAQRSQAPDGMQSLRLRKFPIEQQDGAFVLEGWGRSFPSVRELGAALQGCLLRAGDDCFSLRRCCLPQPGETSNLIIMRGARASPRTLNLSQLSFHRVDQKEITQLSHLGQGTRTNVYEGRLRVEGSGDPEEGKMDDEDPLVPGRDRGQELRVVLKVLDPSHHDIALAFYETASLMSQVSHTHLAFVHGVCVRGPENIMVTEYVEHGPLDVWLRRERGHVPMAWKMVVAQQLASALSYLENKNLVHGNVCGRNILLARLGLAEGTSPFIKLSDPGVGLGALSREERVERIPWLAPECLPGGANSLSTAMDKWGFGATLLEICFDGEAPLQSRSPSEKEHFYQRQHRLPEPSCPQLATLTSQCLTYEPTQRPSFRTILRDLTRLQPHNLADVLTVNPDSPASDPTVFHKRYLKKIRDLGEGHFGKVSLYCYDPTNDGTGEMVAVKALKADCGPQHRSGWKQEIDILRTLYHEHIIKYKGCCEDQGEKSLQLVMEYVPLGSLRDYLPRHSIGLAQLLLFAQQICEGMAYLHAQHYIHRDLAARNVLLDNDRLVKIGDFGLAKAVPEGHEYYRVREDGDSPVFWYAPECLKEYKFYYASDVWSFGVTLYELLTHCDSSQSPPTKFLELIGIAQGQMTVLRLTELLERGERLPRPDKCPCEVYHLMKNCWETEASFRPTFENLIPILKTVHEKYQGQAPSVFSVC", "test": "Selectivity interaction (KinomeScan (DiscoverX)) EUB0000666a TYK2", "details": "at 10 µM"}, "[7]": {"molecular_target": "T3, Cyclin-dependent kinase-like 2 (Homo sapiens) (UniProt Q92772)", "T3 sequence (whole entry)": "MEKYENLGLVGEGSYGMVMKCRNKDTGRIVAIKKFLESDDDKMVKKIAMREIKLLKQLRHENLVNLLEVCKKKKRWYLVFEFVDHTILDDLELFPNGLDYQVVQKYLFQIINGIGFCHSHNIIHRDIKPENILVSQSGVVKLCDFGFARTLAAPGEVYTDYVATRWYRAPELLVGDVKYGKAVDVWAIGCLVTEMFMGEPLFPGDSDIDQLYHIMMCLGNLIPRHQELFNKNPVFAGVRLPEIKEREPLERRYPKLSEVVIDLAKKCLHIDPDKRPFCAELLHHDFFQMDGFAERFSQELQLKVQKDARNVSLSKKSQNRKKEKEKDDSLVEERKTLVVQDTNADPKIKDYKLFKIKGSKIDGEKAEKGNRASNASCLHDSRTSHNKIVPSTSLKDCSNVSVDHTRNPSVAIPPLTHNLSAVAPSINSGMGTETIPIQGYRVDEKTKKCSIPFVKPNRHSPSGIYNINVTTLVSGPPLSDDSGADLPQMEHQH", "test": "Selectivity interaction (KinomeScan (DiscoverX)) EUB0000666a CDKL2", "details": "at 10 µM"}, "[8]": {"molecular_target": "Chromatin remodeling regulator CECR2 (Homo sapiens, UniProt Q9BXF3)", "sequence (Q9BXF3 whole entry, looked up)": "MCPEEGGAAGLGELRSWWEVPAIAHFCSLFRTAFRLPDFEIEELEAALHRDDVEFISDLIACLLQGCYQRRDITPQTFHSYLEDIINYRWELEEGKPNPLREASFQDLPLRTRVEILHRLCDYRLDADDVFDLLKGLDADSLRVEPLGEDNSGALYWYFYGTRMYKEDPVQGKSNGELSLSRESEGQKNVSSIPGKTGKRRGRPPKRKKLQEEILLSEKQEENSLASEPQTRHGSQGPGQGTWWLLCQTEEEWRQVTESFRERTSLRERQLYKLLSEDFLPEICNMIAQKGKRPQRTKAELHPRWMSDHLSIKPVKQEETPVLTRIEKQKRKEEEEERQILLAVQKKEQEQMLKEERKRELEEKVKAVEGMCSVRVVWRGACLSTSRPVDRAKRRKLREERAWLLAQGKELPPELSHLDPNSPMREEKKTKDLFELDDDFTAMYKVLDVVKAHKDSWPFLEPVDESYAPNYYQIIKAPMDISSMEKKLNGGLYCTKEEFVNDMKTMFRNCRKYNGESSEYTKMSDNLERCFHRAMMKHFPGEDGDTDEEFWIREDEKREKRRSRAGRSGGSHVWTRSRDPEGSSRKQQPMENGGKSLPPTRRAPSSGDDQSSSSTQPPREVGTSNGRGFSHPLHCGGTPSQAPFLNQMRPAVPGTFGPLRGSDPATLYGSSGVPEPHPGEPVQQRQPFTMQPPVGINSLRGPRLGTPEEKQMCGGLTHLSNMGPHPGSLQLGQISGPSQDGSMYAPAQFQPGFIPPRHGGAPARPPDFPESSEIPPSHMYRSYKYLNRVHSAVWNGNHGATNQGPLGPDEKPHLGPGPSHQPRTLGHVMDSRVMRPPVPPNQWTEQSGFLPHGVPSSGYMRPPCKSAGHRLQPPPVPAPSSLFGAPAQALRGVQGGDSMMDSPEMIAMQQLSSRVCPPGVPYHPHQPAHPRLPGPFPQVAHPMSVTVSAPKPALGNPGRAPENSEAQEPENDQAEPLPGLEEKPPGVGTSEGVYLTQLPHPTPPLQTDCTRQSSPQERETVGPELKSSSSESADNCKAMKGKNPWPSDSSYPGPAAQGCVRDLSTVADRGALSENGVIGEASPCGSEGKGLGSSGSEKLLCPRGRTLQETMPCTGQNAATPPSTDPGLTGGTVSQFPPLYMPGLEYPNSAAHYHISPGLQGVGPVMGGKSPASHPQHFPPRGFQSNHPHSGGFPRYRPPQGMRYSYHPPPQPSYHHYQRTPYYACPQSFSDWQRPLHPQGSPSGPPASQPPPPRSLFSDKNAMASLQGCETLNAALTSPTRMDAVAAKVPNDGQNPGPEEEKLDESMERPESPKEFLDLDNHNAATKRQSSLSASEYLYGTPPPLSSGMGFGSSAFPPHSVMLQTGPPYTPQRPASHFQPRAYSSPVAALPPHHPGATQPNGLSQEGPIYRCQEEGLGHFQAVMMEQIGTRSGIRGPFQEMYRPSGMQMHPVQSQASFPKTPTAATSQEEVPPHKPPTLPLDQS", "test": "Selectivity interaction (Human bromodomain panel (DSF assay)) EUB0000233b CECR2"}, "[9]": {"system": "Receptor-type tyrosine-protein kinase FLT3 (Homo sapiens), P36888 [UNDEFINED MUTATION]", "test": "Selectivity interaction (KinomeScan (DiscoverX)) EUB0000695a FLT3", "details": "at 100 nM"}}, "data": [{"smiles": "CN(C)CCOc1ccc(-c2nc(-c3ccncc3)c(-c3ccc4c(c3)CC/C4=N\\O)[nH]2)cc1", "values": [{"measurement": "% of control", "setting": "[1]", "result": 18, "unit": "%"}]}, {"smiles": "Nc1cnc(N2CCc3cc(S(=O)(=O)Nc4c(F)cc(Cl)cc4F)cc(N4CCCC4=O)c32)nc1", "note": "[TP-020n]", "values": [{"measurement": "% of inhibition", "setting": "[2]", "result": 9.99, "unit": "%"}]}, {"smiles": "C=CC(=O)Nc1cc(-n2c(=O)ccc3cnc4ccc(-c5ccc(NS(C)(=O)=O)cc5)cc4c32)ccc1C", "values": [{"measurement": "% of control", "setting": "[3]; at 1 µM", "result": 69, "unit": "%"}, {"measurement": "% of control", "setting": "[3]; at 10 µM", "result": 50, "unit": "%"}]}, {"smiles": "CNCCN1CCC(c2cc(CN(C)C(=O)c3cccc(Oc4ccccc4)c3)ccn2)CC1", "values": [{"measurement": "% activity", "setting": "[4]", "result": "> 90", "unit": "%"}]}, {"smiles": "C=CC(=O)Nc1ccc(C(=O)Nc2[nH]nc3c2CN(C(=O)N[C@H](CN(C)C)c2ccccc2)C3(C)C)cc1", "values": [{"measurement": "% of engagement", "setting": "[5]", "result": 3.6, "unit": "%"}]}, {"smiles": "O=C(NOC[C@H](O)CO)c1ccc(F)c(F)c1Nc1ccc(I)cc1F", "values": [{"measurement": "% of control", "setting": "[6]", "result": 100, "unit": "%"}, {"measurement": "% of control", "setting": "[7]", "result": 87, "unit": "%"}]}, {"smiles": "CN(C)CCCOc1ccc(-c2cc(NCCCn3cccn3)nc(S(C)(=O)=O)n2)cc1", "values": [{"measurement": "dTM", "setting": "[8]", "result": 11.1, "unit": "K"}]}, {"smiles": "Cc1cc(F)c(C(=O)Nc2cccc(-c3nncn3C(C)C)n2)cc1-n1cnc(C2CC2)c1", "values": [{"measurement": "% of control", "setting": "[9]", "result": 100, "unit": "%"}]}]}
